According to US20260294770A1, “FORMULATIONS OF NARINGENIN” (DEBUT BIOTECHNOLOGY, INC., priority 2023, published 2026):

What was measured:
KRT77 = assay: Upregulation of gene expression and/or activity, 1% naringenin: KRT77
Excerpt: (§1) In certain embodiments, administration of a composition comprising naringenin leads to up-regulation of LCE5A, KRT77, ALOXE3, KRT1, HPGD, MUCL1, CASP14, WFDC12, KRT10, DNASE1L2, IL37, SERPINB12, HAL, UPK1A, CALML5, LCE2B, and/or MIR205. In certain embodiments, administration of a composition comprising naringenin leads to down-regulation of CCL11, CSF2, IL23A, IL11, BMP6, IL13RA2, C2CD4A, NR4A2, C2CD4B, FGF2, FARP4, GDF15, THBS1, HSPA1A, PTGS2, and/or DKK1. Tables 10 and 11 provide data for upregulation and downregulation respectively of certain genes after administration of compositions comprising 1% naringenin.
Kertain 77 (KRT77) is involved in production of keratin. In particular, KRT77 encodes an epithelial keratin that is expressed in the skin and eccrine sweat glands. KRT77 encodes keratin 77, a member of the type II keratin family of intermediate filament proteins. Keratin 77 is also known as KRT1B, Type II cytoskeletal 1b, Type IT keratin Kb39, and cytokeratin 1B. In certain embodiments, upregulation of expression and/or activity of KRT77, results in enhanced keratin production. The increased keratin production contributes to increase in the skin barrier strength. In certain embodiments, the administration of composition comprising naringenin results in at least about 5 to about 20-fold upregulation of expression and/or activity of KRT77. […]

PTGS2 = assay: Downregulation of gene expression and/or activity, 1% naringenin: PTGS2
Excerpt: as §1
Prostaglandin-endoperoxide synthase 2 (PTGS2) plays a role in the production of signaling molecules that are involved in the inflammatory response. For example, PTGS2 is involved in the conversion of arachidonic acid to prostaglandin H2, an important precursor of prostacyclin, which is expressed in inflammation. In certain embodiments, downregulation of PTGS2 leads to reduction in production of signaling molecules leading to inflammation. Thus, the downregulation of PTGS2 leads to reduced inflammation. In certain embodiments, the administration of composition comprising naringenin results in at least about 2 to about 10-fold downregulation of expression and/or activity of PTGS2. […]

CASP14 = assay: Upregulation of gene expression and/or activity, 1% naringenin: CASP14
Excerpt: as §1
Cysteine-aspartic acid protease 14 (CASP14) plays a role in keratinocyte terminal differentiation, which is important for the formation of the skin barrier. In certain embodiments, administration of compositions comprising naringenin leads to upregulation of CASP14. In certain embodiments, this upregulation of CASP14 leads to the improved skin barrier formation. In certain embodiments, the administration of composition comprising naringenin results in at least about 5 to about 20-fold upregulation of expression and/or activity of CASP14. In certain embodiments, the administration of composition comprising naringenin results in at least about ten (10) fold upregulation of expression and/or activity of CASP14.

THBS1 = assay: Downregulation of gene expression and/or activity, 1% naringenin: THBS1; details: negative = downregulation
Excerpt: as §1

CSF2 = assay: Downregulation of gene expression and/or activity, 1% naringenin: CSF2
Excerpt: as §1
Granulocyte-macrophage colony-stimulating factor (CSF2) plays a role in inflammation and arthritis. In certain embodiments of the invention, downregulation of CSF2 leads to an anti-inflammatory activity and/or anti-arthritic activity. In certain embodiments, the administration of composition comprising naringenin results in at least about 10 to about 20-fold downregulation of expression and/or activity of CSF2. In certain embodiments, the administration of composition comprising naringenin results in at least about fifteen (15) fold downregulation of expression and/or activity of CSF2.

IL13RA2 = assay: Downregulation of gene expression and/or activity, 1% naringenin: IL13RA2
Excerpt: as §1
Interleukin 13 receptor subunit alpha 2 (IL13RA2) plays a role in recovery after stressor caused inflammatory response. In certain embodiments, downregulation of IL13RA2 leads to improved recovery after inflammation caused by stressors. In certain embodiments, the administration of composition comprising naringenin results in at least about 5 to about 15-fold downregulation of expression and/or activity of IL13RA2. In certain embodiments, the administration of composition comprising naringenin results in at least about ten (10) fold downregulation of expression and/or activity of IL13RA2.

SERPINB12 = assay: Upregulation of gene expression and/or activity, 1% naringenin: SERPINB12
Excerpt: as §1
Serine protease inhibitor (SERPINB12) plays a role in protection of epithelial cells. The intracellular serine protease inhibitors (serpins) are an important family of proteins that protect cells form proteinase-mediated injury. SERPINB12 is broadly expressed and is likely to protect cells, including epithelial cells, from both endogenous and exogenous peptidases. In certain embodiments, compositions comprising naringenin leads to upregulation of SERPINB12, which leads to increase in protection of epithelial cells. In certain embodiments, the administration of composition comprising naringenin results in at least about 5 to about 20-fold upregulation of expression and/or activity of SERPINB12. […]

WFDC12 = assay: Upregulation of gene expression and/or activity, 1% naringenin: WFDC12
Excerpt: as §1

Compound: O=C1C[C@@H](c2ccc(O)cc2)Oc2cc(O)cc(O)c21 [naringenin, (2S)-5,7-Dihydroxy-2-(4-hydroxyphenyl)-2,3-dihydro-4H-1-benzopyran-4-one]
- Fold-increase in expression and/or activity of KRT77 (KRT77): ~12 fold
- fold downregulation in expression and/or activity of PTGS2 (PTGS2): ~6 fold
- Fold-increase (downregulation table) PTGS2 (PTGS2; negative = downregulation): −6 fold
- Fold-increase in expression and/or activity of CASP14 (CASP14): ~11 fold
- Fold-increase (downregulation table) THBS1 (THBS1): −6 fold
- fold downregulation in expression and/or activity of CSF2 (CSF2): ~18 fold
- fold downregulation in expression and/or activity of IL13RA2 (IL13RA2): ~10 fold
- Fold-increase (downregulation table) IL13RA2 (IL13RA2; negative = downregulation): −10 fold
- Fold-increase in expression and/or activity of SERPINB12 (SERPINB12): ~13 fold
- Fold-increase in expression and/or activity of WFDC12 (WFDC12): 11 fold
